The values below are quoted from earlier work in patent publication US20110034442A1, “Use and Methods of Use for an Antagonist of the Serotin3 Receptor (5-HT3) and a Selective Modulator of Chloride Channels for the Treatment of Addiction to or Dependence on Medicines/Drugs or Nervous System Disorders” (priority 2007, published 2011).

Where a name gives a salt, the structure may show the parent alone. Read-outs that look alike come from different tables or passages of the source.

The conditions of data set [1]: in vivo.
Data set [2] deals with K+-evoked [3H]ACh efflux. The settings on record: slices from rat entorhinal cortex preloaded with [3H]choline.
For data set [3] the following is noted: in contrast to naltrexone.
The conditions of data set [4]: pH 7.4.
For data set [5] the following is noted: flumazenil 10 mg/kg, ondansetron 0.3 mg/kg, R(−)-alpha-metylhistamine 10 mg/kg.
Data set [6] has as its system rat. The settings on record: elevated plus maze.
Data set [7] deals with alpha(4)-subunit gene expression. Particulars: ethanol withdrawal.
Data set [8] concerns acetylcholine release. The settings on record: GABA(A) receptor antagonist given with ondansetron; rat frontal cortex.
In data set [9] the test system is rats. Particulars: rats receiving combined cocaine-diazepam compared to cocaine alone or diazepam alone.
In data set [10] the test system is male rats.
The test system of data set [11] is alcohol-dependent subjects. The settings on record: 15 alcohol-dependent subjects.
The subject of data set [12] is healthy human volunteers. The settings on record: pretreatment 0.15 mg/kg i.v.; oral D-amphetamine 0.5 mg/kg; subjects with robust responses.
Assay in data set [13]: not given
This is another data set of the same source.

In data set [14] the test system is rats.
The test system of data set [15] is adolescents who had alcohol dependence. The settings on record: 4 microg/kg b.i.d.
Assay in data set [16]: not given
This is another data set of the same source.

The subject of data set [17] is healthy males. Particulars: pretreatment, nine healthy males.
Data set [18] concerns the target T1, 5-HT3 receptors (Homo sapiens, UniProt P46098).
T1 sequence (P46098 24-478): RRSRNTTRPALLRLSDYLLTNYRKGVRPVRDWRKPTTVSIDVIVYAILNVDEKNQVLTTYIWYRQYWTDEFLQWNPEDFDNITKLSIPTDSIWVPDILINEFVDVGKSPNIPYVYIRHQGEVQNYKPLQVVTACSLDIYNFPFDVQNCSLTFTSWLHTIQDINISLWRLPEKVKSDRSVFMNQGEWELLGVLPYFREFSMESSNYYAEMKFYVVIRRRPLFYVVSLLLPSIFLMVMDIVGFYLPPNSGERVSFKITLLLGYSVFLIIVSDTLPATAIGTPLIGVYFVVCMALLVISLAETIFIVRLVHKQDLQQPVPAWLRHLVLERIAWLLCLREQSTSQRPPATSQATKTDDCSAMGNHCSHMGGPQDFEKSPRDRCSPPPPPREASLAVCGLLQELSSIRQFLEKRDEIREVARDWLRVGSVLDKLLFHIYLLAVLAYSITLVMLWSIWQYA
The settings on record: in vivo.

The conditions of data set [19]: in vivo. The source holds these as a separate data set.
In data set [20] the test system is Wistar rats. Particulars: 0.1, 0.5, 1, 2 mg/kg intra-peritoneally, 30 minutes prior to d-amphetamine.
Data set [21] has as its system mice.
Data set [22] has as its system cocaine-dependent men and women.
The conditions of data set [23]: in vivo. The source holds these as a separate data set.
For data set [24] the following is noted: pre-treatment 12 mg orally over 24 h; amphetamine 15 mg orally.
Data set [25] deals with early-onset alcoholism. Particulars: 16 microg/kg twice daily; early-onset compared with late-onset alcoholism.
Data set [26] has as its system alcohol dependent subjects. The settings on record: 4 microg/kg b.i.d.
The subject of data set [27] is mice. The settings on record: 0.1 and 1 mg/kg PO.

Consider `O=Cc1c(N2CCN(Cc3ccc4c(c3)OCO4)CC2)[nH]c2ccccc12` [VA21B7, 3-[2-(4′-piperonylpiperazinyl)indolyl]carboxaldehyde], for which, in [1], the “release of suppressed behavior” value is given as “able to release suppressed behavior”.
With `CN1C2CCCC1CC(NC(=O)c1nn(C)c3ccccc13)C2` (centres unmarked) [granisetron], the “K+-evoked [3H]ACh efflux” value in data set [2] is on record as “concentration-dependent increase”.
As for `C=C1CC[C@@]2(O)[C@H]3Cc4ccc(O)c5c4[C@@]2(CCN3CC2CC2)[C@H]1O5` [nalmefene, 17(cyclopropylmethyl)-4,5-alpha-epoxy-6-methylenemorphinan-3,14-diol,hydrochloride salt], in data set [3], the hepatocellular injury entry is on record as “does not cause hepatocellular injury”.
Consider `CCOC(=O)c1ncn2c1CN(C)C(=O)c1cc(F)ccc1-2` [flumazenil, ethyl 8-fluoro-5,6-dihydro-5-methyl-6-oxo-4H-imidazo[1,5-a](1,4)benzodiazepine-3-carboxylate], for which the “octanol:buffer partition coefficient” value in data set [4] is 14 to 1. Moreover, the “attenuation of scopolamine-induced deficits” value (from here on “attenuation”) in data set [5] is “neither flumazenil 10 mg/kg, ondansetron 0.3 mg/kg nor R(−)-alpha-metylhistamine 10 mg/kg attenuated”. For the same molecule, in data set [6], the anxiolytic effects result was “did not produce any anxiolytic effects” and the “decrease in open arm entries produced by withdrawal from ethanol treatment” value was “blocked these changes”. The “up-regulation of alpha(4)-subunit gene expression” value in data set [7] is reported as “selectively prevented the up-regulation”. Moreover, the “peak increase of acetylcholine release over basal levels” value in [8] was 259%. Further, the “seizures and incidence of death” value in data set [9] is “unmask seizures and increase the incidence of death”. The “K+-evoked [3H]ACh efflux” value in data set [2] is reported as “enhanced”. Besides, the “changes of the self-stimulation” value in data set [10] was “did not cause any substantial changes”. For the same molecule, where the note is “acidic aqueous solutions”, the “solubility in acidic aqueous solutions” value is reported as “slightly soluble”. Where the note is “water”, the solubility in water result was “insoluble”. Further, the “anxiolytic or anxiogenic effect” value in data set [11] is given as “neither anxiolytic nor anxiogenic”.
With `C[C@@H](N)Cc1c[nH]cn1` [R(−)-alpha-metylhistamine], the “attenuation” value in [5] was “neither flumazenil 10 mg/kg, ondansetron 0.3 mg/kg nor R(−)-alpha-metylhistamine 10 mg/kg attenuated”.
Consider `CN1[C@@H]2CC[C@H]1C[C@@H](OC(=O)c1cc(Cl)cc(Cl)c1)C2` [MDL 72222], for which the “K+-evoked [3H]ACh efflux” value in data set [2] is given as “concentration-dependent increase”.
Regarding `Cc1nccn1CC1CCc2c(c3ccccc3n2C)C1=O` (racemic) [ondansetron, (±)1,2,3,9-tetrahydro-9-methyl-3-[(2-methyl-1H-imidazol-1-yl)methyl]-4H-carbazol-4-one, monohydrochlororide, dehydrate], in [12], the “activation-euphoria responses to D-amphetamine” value is listed as “attenuated responses”. Moreover, in [13] (administered 30 min before the cocaine session), the “cocaine intake the following day” value is “no effect”. Also, in data set [13] (given 3.5 h after intravenous cocaine self-administration), the “cocaine self-administration the following day” value is listed as “attenuate self-administration the following day”. Besides, in [13] (given after each second cocaine regimen dose or during the second withdrawal period), the “cocaine self-administration and sensitization” value is “inhibited”. Further, in [14] (rats (Rezazadeh 1992)), the “anxiolytic action during withdrawal from chronic chlordiazepoxide” value was “mixed results”. In addition, in [14] (rats, three tests, flumazenil given during chronic chlordiazepoxide (Prather 1993)), the “efficacy in reversing various aspects of benzodiazepine withdrawal” value is “Inconsistent results”. Also, in data set [15], the “craving, Adolescent Obsessive-Compulsive Drinking Scale” value was “reduction”. For the same molecule, the drinks per day result in data set [15] (8 weeks) was “significant decrease”. For the same molecule, the safety and tolerability entry in data set [15] (oral, 8 weeks, 12 adolescents) is “safe and well tolerated”. Moreover, in data set [5], the “attenuation” value is given as “neither flumazenil 10 mg/kg, ondansetron 0.3 mg/kg nor R(−)-alpha-metylhistamine 10 mg/kg attenuated”. The “expression of sensitization and tolerance” value in [16] (administered during withdrawal from intermittent and continuous cocaine) was “blockade of the expression of sensitization and tolerance”. Moreover, in [16] (continuous cocaine group), the “development of behavioral tolerance” value was “attenuated the development of behavioral tolerance”. The development of sensitization result in data set [16] (daily injections with cocaine, inverted U-shape dose-response curve) is given as “significantly blocked the development of sensitization”. In addition, the “subsequent behavioral response to cocaine” value in [16] (daily injections, saline control subjects) was “no consistent or significant effect”. Besides, in data set [17], the “effects of amphetamine on blood pressure or psychomotor performance tests” value is “not on blood pressure or psychomotor performance tests”; the “effects of amphetamine on hunger and subjective state” value was “attenuated”. Also, the “antagonism of the effects of amphetamine” value in data set [18] is listed as “did not antagonize the effects of amphetamine”. In addition, the “increased behavioral suppression following withdrawal from ethanol, nicotine and cocaine” value in data set [19] is “highly effective inhibitor”. In [20], the average stereotypic score entry is on record as “decreased”; the “mean number of head dippings and crossings in the hole board test” value is listed as “significantly decreased”. Further, in [21] (0.01, 0.1 and 1 mg/kg i.p.), the “anxiolytic action compared to naive mice” value is listed as “significant anxiolytic action”. The “potency compared to diazepam” value in data set [21] (diazepam 1 mg/kg) is “less potent”. Further, the “tolerability, adverse events” value in [22] (0.25 mg, 1.0 mg, or 4.0 mg twice daily, 10 weeks) is “well tolerated, causing no serious adverse events”. The “dropout rate among all treatment groups” value in data set [22] (4.0 mg twice daily) is recorded as “lowest dropout rate”. Moreover, the “percentage of participants with a cocaine-free week compared with the placebo group” value in data set [22] (4.0 mg twice daily, p=0.02) is recorded as “greater rate of improvement”. In data set [23], the “ensuing facilitation of self-stimulation after high-dose nicotine” value is recorded as “not the ensuing facilitation”, the “initial depression of self-stimulation by high-dose nicotine” value is listed as “reduced the initial depression” and the self-stimulation result was “no effect”. Moreover, the “amphetamine-induced decrease in self-ratings of hunger” value in [24] was “significantly attenuated”. For the same molecule, in data set [25], the “alleviation of overall mood disturbance, fatigue, vigor, confusion/bewilderment and depression” value is reported as “greater therapeutic efficacy”. The “K+-evoked [3H]ACh efflux” value in data set [2] is “concentration-dependent increase”. Also, in [10], the “changes of the self-stimulation” value is on record as “did not cause any substantial changes”. The overall craving result in [26] (early-onset alcoholics) is recorded as “reduced overall craving significantly”. For the same molecule, in data set [26] (late-onset alcoholics, compared with placebo), the overall craving result was “not late-onset alcoholics”. The “solubility in water and normal saline” value (racemic form, water and normal saline) is on record as “soluble”. Further, the “number of shocks taken” value in [27] was “increased”.
